Test results taken from PubChem BioAssay (NCI).
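Grown in 96-well plates, cells were treated for 48 hours with each compound at five concentrations. Insufficient inhibition: endpoint recorded as highest concentration tested. The concentration for 50% growth inhibition is given as GI50. TGI: total growth inhibition.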

Legend:
Assay in all cases: DTP human tumour cell line panel, 48 h
OVCAR-5 ovarian = tested on: OVCAR-5 ovarian
786-0 renal = tested on: 786-0 renal
A498 renal = tested on: A498 renal
A549 NSCLC = tested on: A549 NSCLC
ACHN renal = tested on: ACHN renal
BT-549 breast = tested on: BT-549 breast
CAKI-1 renal = tested on: CAKI-1 renal
CCRF-CEM leukemia = tested on: CCRF-CEM leukemia
COLO 205 colon = tested on: COLO 205 colon
DU-145 prostate = tested on: DU-145 prostate
EKVX NSCLC = tested on: EKVX NSCLC
HCT-116 colon = tested on: HCT-116 colon
HCT-15 colon = tested on: HCT-15 colon
HL-60(TB) leukemia = tested on: HL-60(TB) leukemia
HOP-62 NSCLC = tested on: HOP-62 NSCLC
HOP-92 NSCLC = tested on: HOP-92 NSCLC
HS 578T breast = tested on: HS 578T breast
HT29 colon = tested on: HT29 colon
IGROV1 ovarian = tested on: IGROV1 ovarian
K-562 leukemia = tested on: K-562 leukemia
KM12 colon = tested on: KM12 colon
LOX IMVI melanoma = tested on: LOX IMVI melanoma
M14 melanoma = tested on: M14 melanoma
MALME-3M melanoma = tested on: MALME-3M melanoma
MCF7 breast = tested on: MCF7 breast
MDA-MB-435 = tested on: MDA-MB-435
MOLT-4 leukemia = tested on: MOLT-4 leukemia
NCI-H23 lung = tested on: NCI-H23 lung
NCI-H460 lung = tested on: NCI-H460 lung
NCI-H522 lung = tested on: NCI-H522 lung
NCI/ADR-RES ovarian = tested on: NCI/ADR-RES ovarian
OVCAR-3 ovarian = tested on: OVCAR-3 ovarian
OVCAR-4 ovarian = tested on: OVCAR-4 ovarian
OVCAR-8 ovarian = tested on: OVCAR-8 ovarian
PC-3 prostate = tested on: PC-3 prostate
RPMI-8226 leukemia = tested on: RPMI-8226 leukemia
RXF 393 renal = tested on: RXF 393 renal
SF-268 CNS = tested on: SF-268 CNS
SF-295 CNS = tested on: SF-295 CNS
SF-539 CNS = tested on: SF-539 CNS
SK-MEL-2 melanoma = tested on: SK-MEL-2 melanoma
SK-MEL-28 melanoma = tested on: SK-MEL-28 melanoma
SK-MEL-5 melanoma = tested on: SK-MEL-5 melanoma
SK-OV-3 ovarian = tested on: SK-OV-3 ovarian
SN12C renal = tested on: SN12C renal
SNB-19 CNS = tested on: SNB-19 CNS
SNB-75 CNS = tested on: SNB-75 CNS
SW-620 colon = tested on: SW-620 colon
T-47D breast = tested on: T-47D breast
TK-10 renal = tested on: TK-10 renal
U251 CNS = tested on: U251 CNS
UACC-257 melanoma = tested on: UACC-257 melanoma
UACC-62 melanoma = tested on: UACC-62 melanoma
UO-31 renal = tested on: UO-31 renal

`C#CC[C@@H]1C[C@]2(C)[C@H]3CC[C@@H]4[C@H]5C(C(=C)C)CC[C@]5(C(=O)NCCCN5CCN(CCCN)CC5)CC[C@@]4(C)[C@]3(C)CC[C@H]2C(C)(C)[C@H]1OC(C)=O` (stereo partly drawn) was tested, and the GI50 (OVCAR-5 ovarian) was 1.58 µM and the TGI (OVCAR-5 ovarian) was 2.95 µM.

For `COC1/C=C(C)/C=C/C(C)/C=C/C(=O)OC(/C(C)=C/C=C(\C)CNC(=O)[C@H](CO)NC=O)C(C)/C=C/C=C/C(OC)CC/C=C(C)/C=C/C1` (stereo partly drawn), the TGI (786-0 renal) was > 1 µM, the TGI (A498 renal) was > 1 µM and the TGI (A549 NSCLC) was > 1 µM. The TGI (ACHN renal) was > 1 µM, the TGI (BT-549 breast) was > 1 µM and the TGI (CAKI-1 renal) was > 0.397 µM. The TGI (CCRF-CEM leukemia) was > 1 µM, the GI50 (COLO 205 colon) was 0.0331 µM and the TGI (COLO 205 colon) was > 1 µM. For the same molecule, the TGI (DU-145 prostate) was > 1 µM, the TGI (EKVX NSCLC) was > 1 µM and the TGI (HCT-116 colon) was > 1 µM. The TGI (HCT-15 colon) was > 1 µM, the TGI (HL-60(TB) leukemia) was 0.0957 µM and the TGI (HOP-62 NSCLC) was 0.109 µM. The TGI (HOP-92 NSCLC) was > 0.267 µM, the TGI (HS 578T breast) was > 1 µM and the TGI (HT29 colon) was > 1 µM. For the same molecule, the TGI (IGROV1 ovarian) was > 1 µM, the TGI (K-562 leukemia) was 0.0472 µM and the TGI (KM12 colon) was > 1 µM. The TGI (LOX IMVI melanoma) was > 1 µM, the TGI (M14 melanoma) was 0.0356 µM and the TGI (MALME-3M melanoma) was 0.385 µM. The TGI (MCF7 breast) was > 1 µM, the TGI (MDA-MB-435) was 0.047 µM and the TGI (MOLT-4 leukemia) was > 0.611 µM. For the same molecule, the TGI (NCI-H23 lung) was > 0.859 µM, the TGI (NCI-H460 lung) was > 1 µM and the GI50 (NCI-H522 lung) was 0.0362 µM. The TGI (NCI-H522 lung) was > 1 µM, the TGI (NCI/ADR-RES ovarian) was > 0.724 µM and the TGI (OVCAR-3 ovarian) was > 0.461 µM. For the same molecule, the TGI (OVCAR-4 ovarian) was > 1 µM, the TGI (OVCAR-5 ovarian) was > 1 µM and the TGI (OVCAR-8 ovarian) was > 1 µM. For the same molecule, the TGI (PC-3 prostate) was > 0.352 µM, the TGI (RPMI-8226 leukemia) was 0.0769 µM and the TGI (RXF 393 renal) was > 1 µM. For the same molecule, the TGI (SF-268 CNS) was > 1 µM, the TGI (SF-295 CNS) was 0.0534 µM and the TGI (SF-539 CNS) was > 0.257 µM. For the same molecule, the TGI (SK-MEL-2 melanoma) was > 0.246 µM, the TGI (SK-MEL-28 melanoma) was > 1 µM and the TGI (SK-MEL-5 melanoma) was 0.0654 µM. The TGI (SK-OV-3 ovarian) was > 1 µM, the TGI (SN12C renal) was > 1 µM and the TGI (SNB-19 CNS) was > 1 µM. The TGI (SNB-75 CNS) was > 1 µM, the TGI (SW-620 colon) was > 1 µM and the TGI (T-47D breast) was > 1 µM. The TGI (TK-10 renal) was > 1 µM, the TGI (U251 CNS) was > 1 µM and the TGI (UACC-257 melanoma) was > 0.206 µM. The TGI (UACC-62 melanoma) was 0.0553 µM and the TGI (UO-31 renal) was > 0.735 µM.
